Test [1] relates to 10mer DNA sequence AGAATTGAGT possessing a high-affinity site (-AATT-). Briefly: Electrochemically-determined surface melt curves (solid phase DNA denaturation, cyclic voltammetry of ferrocene-labeled strand). In kind it is binding. To be noted: 2×10^−6 M netropsin. An excerpt: (B) Shape comparison of solution and surface melting transitions.
In this example, one strand was immobilized while the electroactively-labeled complementary strand was present in solution. Immobilization was realized through a single thiolate (—S—Au) linkage between DNA and the gold electrode support, with mercaptohexanol passivation used to block the remaining surface. (86) Hybridization occurred to the extent governed by thermodynamics under the imposed conditions of temperature and drug concentration. The extent of hybridization was tracked as a function of temperature with cyclic voltammetry, which allows determination of the coverage of double-stranded molecules from the total charge derived from their ferrocene labels. (87-88)
A number of noteworthy conclusions follow from FIG. 5A. The cooling and heating cycles superpose, confirming closeness to equilibrium at the tested scan rate of 0.4° C./min.
This is expected since netropsin prefers to bind to double-stranded DNA. (89) The free energy of binding (i.e. affinity) determined from the surface approach (FIG. 5A) is in reasonable agreement with solution methods. […]

For test [2], the system named is MB 5′ Fluorescein-CAATTCCTCT12GAATTG-BHQ1-C7-Amine 3′ with high affinity AATT site in the stem. Briefly: TIRF-imaged melt curves of surface-immobilized molecular beacons (MB microarray). Format: binding. The settings on record: 2 μM netropsin, 0.1 M pH 7 phosphate buffer, average of 9 spots. Here is the method:
The field of view is 4 mm diameter. (B) Melting curves of surface-immobilized MBs without and with 2 μM netropsin in 0.1 M phosphate buffer. […] (C) Melting curves under same conditions as in (B), but for MBs in solution. MBs were assumed closed once data with and without netropsin converged at lower temperatures.
BHQ1 is Black Hole Quencher 1, and the 3′ amine is used for surface immobilization via the stem. Repetition with the same MBs printed on commercial aldehyde microarray slides produced a 4-fold gain with transition observed at a similar temperature, FIG. 2A. […] (56-65) In such studies, opening of the MBs is driven by hybridization at the loop section, as opposed to thermal denaturation as in the data of FIG. 2. Efforts to improve the hybridization-induced gains included optimization of pH and salt composition (60-61, 63), insertion of spacers to distance MBs from the solid support, (63) changes in the chemical nature of the solid support (60-61), and isolation of MBs on the surface down to the single-molecule limit. (62) These approaches, however, have not solved the decreased gain, although effective workarounds have been found for hybridization applications (e.g. use of the solid support itself to provide better quenching (66-70)). Surface-immobilized SPs have also produced approximately 4-fold gains upon hybridization. (64) […]

The test system of another test is DNA. The settings on record: reported for 0.016 M Na+ in ref. 38, corrected to 0.8 M Na+ using ref. 76; cited from earlier work.

Data on one molecule can be found in patent US20120295805A1, “SOLID PHASE METHODS FOR THE[…] KINETIC QUANTIFICATION OF INTERACTIONS BETWEEN NUCLEIC ACIDS AND SMALL MOLECULES” (priority 2011, published 2012).

With `Cn1cc(NC(=O)c2cc(NC(=O)CN=C(N)N)cn2C)cc1C(=O)NCCC(=N)N` [netropsin], the “Effect on denaturation transition (electrochemical melt curve)” value in test [1] (0.5 M pH 7 sodium phosphate buffer, scan rate 0.4° C./min) is reported as “shifts denaturation to higher temperatures”. Further, the “ΔΔG°25C (increment of ΔG° of melting attributed to the drug; free energy of binding)” value in test [1] (surface approach, 0.5 M pH 7 sodium phosphate buffer (0.8 M Na+), calculated at 25° C. from fitted ΔH° and ΔS°) was -8.9 kcal/mol. Further, the “Effect on melt transition (TM) of surface-immobilized MBs” value in test [2] is “TM shifting to higher temperatures”. The “ΔΔG°25C based on solution methods” value with DNA is -9.2 kcal/mol.
